Source: patent US7271130B2 (priority 2002, dated 2007)

Test system: Erysiphe graminis f.sp. hordei
Type: in vivo
Settings: 200 ppm

SMILES: CC#CC(C)(C)NC(=O)C(COC)Oc1cc(Cl)cc(Cl)c1 (stereo not shown) [4(1), 2-(3,5-dichlorophenoxy)-3-methoxy-N-(4-methylpent-2-yn-4-yl)propionamide]
- control of fungal infection: at least 70%
